Assays:
Assay type in all cases: in vivo
Triticum aestivum = experiment: Post-emergence crop plant compatibility
Protocol: (§1) Seeds of monocotyledonous and dicotyledonous weeds and crop plants were placed in sandy loam in plastic or wood-fiber pots, covered with soil and cultivated in a greenhouse under controlled growth conditions. 2 to 3 weeks after sowing, the test plants were treated at the one-leaf stage. The compounds of the invention, formulated in the form of wettable powders (WP) or as emulsion concentrates (EC), were then sprayed onto the green parts of the plants as aqueous suspension or emulsion with addition of 0.5% additive at a water application rate of […] (converted). After the test plants had been kept in the greenhouse under optimum growth conditions for about 3 weeks, the activity of the preparations was rated visually in comparison to untreated controls. For example, 100% activity=the plants have died, 0% activity=like control plants.
(§2) Here, the observed effects on selected crop plants are stated in comparison to the untreated controls (values in %).

Amaranthus retroflexus = experiment: Post-emergence herbicidal action
Protocol: as §1, with “plants. Tables A1 to A14 below show the effects of selected compounds of the general formula (I) according to Tables I.1 to I.34 on various harmful plants and at an application rate corresponding to 20 g/ha and less, which were obtained by the experimental procedure mentioned above.” for “plants.”

Avena fatua = experiment: Post-emergence herbicidal action; conditions: application rate 20 g/ha
Protocol: as §1, with “plants. Tables A1 to A14 below show the effects of selected compounds of the general formula (I) according to Tables I.1 to I.34 on various harmful plants and at an application rate corresponding to 20 g/ha and less, which were obtained by the experimental procedure mentioned above.” for “plants.”

Abutilon theophrasti = experiment: Post-emergence herbicidal action
Protocol: as §1, with “plants. Tables A1 to A14 below show the effects of selected compounds of the general formula (I) according to Tables I.1 to I.34 on various harmful plants and at an application rate corresponding to 20 g/ha and less, which were obtained by the experimental procedure mentioned above.” for “plants.”

Matricaria inodora = experiment: Post-emergence herbicidal action
Protocol: as §1, with “plants. Tables A1 to A14 below show the effects of selected compounds of the general formula (I) according to Tables I.1 to I.34 on various harmful plants and at an application rate corresponding to 20 g/ha and less, which were obtained by the experimental procedure mentioned above.” for “plants.”

Pharbitis purpurea = experiment: Post-emergence herbicidal action
Protocol: as §1, with “plants. Tables A1 to A14 below show the effects of selected compounds of the general formula (I) according to Tables I.1 to I.34 on various harmful plants and at an application rate corresponding to 20 g/ha and less, which were obtained by the experimental procedure mentioned above.” for “plants.”

Viola tricolor = experiment: Post-emergence herbicidal action
Protocol: as §1, with “plants. Tables A1 to A14 below show the effects of selected compounds of the general formula (I) according to Tables I.1 to I.34 on various harmful plants and at an application rate corresponding to 20 g/ha and less, which were obtained by the experimental procedure mentioned above.” for “plants.”

Alopecurus myosuroides = experiment: Post-emergence herbicidal action
Protocol: as §1, with “plants. Tables A1 to A14 below show the effects of selected compounds of the general formula (I) according to Tables I.1 to I.34 on various harmful plants and at an application rate corresponding to 20 g/ha and less, which were obtained by the experimental procedure mentioned above.” for “plants.”

Echinochloa crus-galli = experiment: Post-emergence herbicidal action
Protocol: as §1, with “plants. Tables A1 to A14 below show the effects of selected compounds of the general formula (I) according to Tables I.1 to I.34 on various harmful plants and at an application rate corresponding to 20 g/ha and less, which were obtained by the experimental procedure mentioned above.” for “plants.”

Veronica persica = experiment: Post-emergence herbicidal action
Protocol: as §1, with “plants. Tables A1 to A14 below show the effects of selected compounds of the general formula (I) according to Tables I.1 to I.34 on various harmful plants and at an application rate corresponding to 20 g/ha and less, which were obtained by the experimental procedure mentioned above.” for “plants.”

Oryza sativa = experiment: Post-emergence crop plant compatibility
Protocol: as §1, §2

Brassica napus = experiment: Post-emergence crop plant compatibility; conditions: application rate 1.25 g/ha
Protocol: as §1, §2

Zea mays = experiment: Post-emergence crop plant compatibility
Protocol: as §1, §2

Setaria viridis = experiment: Post-emergence herbicidal action; conditions: 504 h, read-out: Setaria viridis (efficacy in %)
Protocol: as §1, with “plants. Tables A1 to A14 below show the effects of selected compounds of the general formula (I) according to Tables I.1 to I.34 on various harmful plants and at an application rate corresponding to 20 g/ha and less, which were obtained by the experimental procedure mentioned above.” for “plants.”

Digitaria sanguinalis = experiment: Post-emergence herbicidal action; conditions: 504 h, read-out: Digitaria sanguinalis (efficacy in %)
Protocol: as §1, with “plants. Tables A1 to A14 below show the effects of selected compounds of the general formula (I) according to Tables I.1 to I.34 on various harmful plants and at an application rate corresponding to 20 g/ha and less, which were obtained by the experimental procedure mentioned above.” for “plants.”

Polygonum convolvulus = experiment: Post-emergence herbicidal action; conditions: Fallopia convolvulus, 504 h, read-out: Polygonum convolvulus (efficacy in %)
Protocol: as §1, with “plants. Tables A1 to A14 below show the effects of selected compounds of the general formula (I) according to Tables I.1 to I.34 on various harmful plants and at an application rate corresponding to 20 g/ha and less, which were obtained by the experimental procedure mentioned above.” for “plants.”

Stellaria media = experiment: Post-emergence herbicidal action
Protocol: as §1, with “plants. Tables A1 to A14 below show the effects of selected compounds of the general formula (I) according to Tables I.1 to I.34 on various harmful plants and at an application rate corresponding to 20 g/ha and less, which were obtained by the experimental procedure mentioned above.” for “plants.”

With `N#CCOC(=O)COc1ncccc1Sc1cc(-n2c(=O)cc(C(F)(F)F)n(N)c2=O)c(F)cc1Cl` [I.1-176] the “Triticum aestivum (efficacy in %)” value (Triticum aestivum; application rate 1.25 g/ha) was 20%, the “Amaranthus retroflexus (efficacy in %)” value (Amaranthus retroflexus; application rate 5 g/ha) was 100% and the “Amaranthus retroflexus (efficacy in %)” value (Amaranthus retroflexus; application rate 20 g/ha) was 100%. For the same compound, the “Avena fatua (efficacy in %)” value (Avena fatua) was 80%, the “Abutilon theophrasti (efficacy in %)” value (Abutilon theophrasti; application rate 5 g/ha) was 100% and the “Abutilon theophrasti (efficacy in %)” value (Abutilon theophrasti; application rate 20 g/ha) was 100%. For the same compound, the “Matricaria inodora (efficacy in %)” value (Matricaria inodora; application rate 5 g/ha) was 100%, the “Matricaria inodora (efficacy in %)” value (Matricaria inodora; application rate 20 g/ha) was 100% and the “Pharbitis purpurea (efficacy in %)” value (Pharbitis purpurea; application rate 5 g/ha) was 100%. For the same compound, the “Pharbitis purpurea (efficacy in %)” value (Pharbitis purpurea; application rate 20 g/ha) was 100%, the “Viola tricolor (efficacy in %)” value (Viola tricolor; application rate 5 g/ha) was 100% and the “Viola tricolor (efficacy in %)” value (Viola tricolor; application rate 20 g/ha) was 100%. The “Alopecurus myosuroides (efficacy in %)” value (Alopecurus myosuroides; application rate 5 g/ha) was 90%, the “Alopecurus myosuroides (efficacy in %)” value (Alopecurus myosuroides; application rate 20 g/ha) was 100% and the “Echinochloa crus-galli (efficacy in %)” value (Echinochloa crus-galli; application rate 5 g/ha) was 90%. The “Echinochloa crus-galli (efficacy in %)” value (Echinochloa crus-galli; application rate 20 g/ha) was 100%, the “Veronica persica (efficacy in %)” value (Veronica persica; application rate 5 g/ha) was 100% and the “Veronica persica (efficacy in %)” value (Veronica persica; application rate 20 g/ha) was 100%.

`Nn1c(C(F)(F)F)cc(=O)n(-c2cc(Sc3cccnc3OCC(=O)OCc3ccccn3)c(Cl)cc2F)c1=O` [I.1-286] was tested, and the “Triticum aestivum (efficacy in %)” value (Triticum aestivum; application rate 1.25 g/ha) was 20%, the “Oryza sativa (efficacy in %)” value (Oryza sativa; application rate 1.25 g/ha) was 0% and the “Amaranthus retroflexus (efficacy in %)” value (Amaranthus retroflexus; application rate 5 g/ha) was 100%. The “Amaranthus retroflexus (efficacy in %)” value (Amaranthus retroflexus; application rate 20 g/ha) was 100%, the “Avena fatua (efficacy in %)” value (Avena fatua) was 80% and the “Abutilon theophrasti (efficacy in %)” value (Abutilon theophrasti; application rate 5 g/ha) was 100%. The “Abutilon theophrasti (efficacy in %)” value (Abutilon theophrasti; application rate 20 g/ha) was 100%, the “Matricaria inodora (efficacy in %)” value (Matricaria inodora; application rate 5 g/ha) was 100% and the “Matricaria inodora (efficacy in %)” value (Matricaria inodora; application rate 20 g/ha) was 100%. The “Pharbitis purpurea (efficacy in %)” value (Pharbitis purpurea; application rate 5 g/ha) was 100%, the “Viola tricolor (efficacy in %)” value (Viola tricolor; application rate 5 g/ha) was 100% and the “Viola tricolor (efficacy in %)” value (Viola tricolor; application rate 20 g/ha) was 100%. For the same compound, the “Alopecurus myosuroides (efficacy in %)” value (Alopecurus myosuroides; application rate 5 g/ha) was 100%, the “Alopecurus myosuroides (efficacy in %)” value (Alopecurus myosuroides; application rate 20 g/ha) was 100% and the “Veronica persica (efficacy in %)” value (Veronica persica; application rate 5 g/ha) was 100%. The “Veronica persica (efficacy in %)” value (Veronica persica; application rate 20 g/ha) was 100%.

`COC(=O)CCCOc1ncccc1Sc1cc(-n2c(=O)cc(C(F)(F)F)n(N)c2=O)c(F)cc1Cl` [I.6-441, Methyl 4-{[3-({5-[3-amino-2,6-dioxo-4-(trifluoromethyl)-3,6-dihydropyrimidin-1(2H)-yl]-2-chloro-4-fluorophenyl}sulfanyl)pyridin-2-yl]oxy}butanoate] was tested, and the “Triticum aestivum (efficacy in %)” value (Triticum aestivum; application rate 5 g/ha) was 20%, the “Oryza sativa (efficacy in %)” value (Oryza sativa; application rate 5 g/ha) was 20% and the “Brassica napus (efficacy in %)” value (Brassica napus) was 20%. The “Zea mays (efficacy in %)” value (Zea mays; application rate 1.25 g/ha) was 10%, the “Zea mays (efficacy in %)” value (Zea mays; application rate 5 g/ha) was 20% and the pest or weed control at 5 g/ha (Setaria viridis; application rate 5 g/ha) was 90%. The pest or weed control at 20 g/ha (Setaria viridis; application rate 20 g/ha) was 100%, the pest or weed control at 5 g/ha (Amaranthus retroflexus; Amaranthus retroflexus, 504 h, application rate 5 g/ha, read-out: Amaranthus retroflexus (efficacy in %)) was 100% and the pest or weed control at 20 g/ha (Amaranthus retroflexus; Amaranthus retroflexus, 504 h, application rate 20 g/ha, read-out: Amaranthus retroflexus (efficacy in %)) was 100%. For the same compound, the pest or weed control at 5 g/ha (Abutilon theophrasti; Abutilon theophrasti, 504 h, application rate 5 g/ha, read-out: Abutilon theophrasti (efficacy in %)) was 100%, the pest or weed control at 20 g/ha (Abutilon theophrasti; Abutilon theophrasti, 504 h, application rate 20 g/ha, read-out: Abutilon theophrasti (efficacy in %)) was 100% and the pest or weed control at 5 g/ha (Digitaria sanguinalis; application rate 5 g/ha) was 80%. The pest or weed control at 20 g/ha (Digitaria sanguinalis; application rate 20 g/ha) was 100%, the pest or weed control at 20 g/ha (Matricaria inodora; Tripleurospermum inodorum, 504 h, application rate 20 g/ha, read-out: Matricaria inodora (efficacy in %)) was 80% and the pest or weed control at 5 g/ha (Polygonum convolvulus; application rate 5 g/ha) was 100%. For the same compound, the pest or weed control at 20 g/ha (Polygonum convolvulus; application rate 20 g/ha) was 100%, the pest or weed control at 5 g/ha (Pharbitis purpurea; Ipomoea purpurea, 504 h, application rate 5 g/ha, read-out: Pharbitis purpurea (efficacy in %)) was 80% and the pest or weed control at 20 g/ha (Pharbitis purpurea; Ipomoea purpurea, 504 h, application rate 20 g/ha, read-out: Pharbitis purpurea (efficacy in %)) was 90%. For the same compound, the “Stellaria media (efficacy in %)” value (Stellaria media; application rate 5 g/ha) was 100%, the “Stellaria media (efficacy in %)” value (Stellaria media; application rate 20 g/ha) was 100% and the pest or weed control at 5 g/ha (Viola tricolor; Viola tricolor, 504 h, application rate 5 g/ha, read-out: Viola tricolor (efficacy in %)) was 100%. For the same compound, the pest or weed control at 20 g/ha (Viola tricolor; Viola tricolor, 504 h, application rate 20 g/ha, read-out: Viola tricolor (efficacy in %)) was 100%, the “Alopecurus myosuroides (efficacy in %)” value (Alopecurus myosuroides; application rate 20 g/ha) was 80% and the pest or weed control at 5 g/ha (Echinochloa crus-galli; Echinochloa crus-galli, 504 h, application rate 5 g/ha, read-out: Echinochloa crus-galli (efficacy in %)) was 80%. The pest or weed control at 20 g/ha (Echinochloa crus-galli; Echinochloa crus-galli, 504 h, application rate 20 g/ha, read-out: Echinochloa crus-galli (efficacy in %)) was 90%, the pest or weed control at 5 g/ha (Veronica persica; Veronica persica, 504 h, application rate 5 g/ha, read-out: Veronica persica (efficacy in %)) was 100% and the pest or weed control at 20 g/ha (Veronica persica; Veronica persica, 504 h, application rate 20 g/ha, read-out: Veronica persica (efficacy in %)) was 100%.

— US20220274954A1, “SUBSTITUTED N-PHENYL-N-AMINOUARCILS AND SALTS THEREOF AND USE THEREOF AS HERBICIDAL AGENTS” (Bayer Aktiengesellschaft, priority 2019, published 2022)
